A short description of series [1]: Phospholipid binding at pH 7.4 on IAM PC.DD2 HPLC column. Format: physicochemical. Particulars: for CHI IAM: pH 7.4; for log k IAM: pH 7.4, derived from CHI IAM by equation 1. On the set-up: key to CHI IAM: approximates acetonitrile concentration (%) in mobile phase at elution. Put shortly: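 Gradient retention on IAM PC.DD2 column (100 x 4.6 mm) with 50 mM ammonium acetate pH 7.4, 1.5 mL/min, 6 min cycle. Retention calibrated against acetophenone homologues to give CHI IAM (approximate acetonitrile concentration at elution), converted to log k IAM by equation.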

Series [2] addresses human serum albumin (HSA) (Homo sapiens, UniProt P02768). In words: Protein binding on Chiralpak HSA HPLC column. To be noted: pH 7.4, Chiralpak HSA. Put shortly:
(§1)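 Binding measured by gradient HPLC on immobilised HSA or AGP stationary phases.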

A further series relates to hERG channel. To be noted: cited from earlier work.
Series [3] can be described thus: Charge character of the drugs at pH 7.4. Format: physicochemical.
Series [4] deals with AGP. In words: Literature % binding to AGP by equilibrium dialysis (calibration set). Particulars: log k = log (%binding/(101-%binding)) from literature % binding. A general note: In equilibrium dialysis free small molecules cross a membrane that holds back macromolecules.
The subject of series [5] is HSA. To be noted: calibration set; log k = log (%binding/(101-%binding)) from literature % binding.
Series [6] is described as follows: CHI lipophilicity by gradient reversed-phase HPLC (Gemini NX-C-18). Particulars: for chromatographic logD: Gemini NX-C-18 reversed-phase HPLC column, pH 7.4. Put shortly:
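Calibrated gradient retention times came from a 50 x 3 mm, 5 μm C-18 column run with a 0–100% linear acetonitrile gradient. A standard compound set converted these times to CHI values.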

The test system of series [7] is alpha-1-acid-glycoprotein (AGP). The experiment in a line: Protein binding on Chiralpak AGP HPLC column. Particulars: pH 7.4, Chiralpak AGP. Put shortly: as §1
The subject of series [8] is AGP. Particulars: calibration set; equilibrium dialysis; literature; cited from earlier work.
Series [9] concerns HSA. Particulars: calibration set; equilibrium dialysis; literature; cited from earlier work.
On the set-up of series [10]: method as in doi:10.5599/admet.5.1.373. Particulars: calibration set; predetermined by isocratic measurements; cited from earlier work.
Series [11] relates to AGP.
Setting [12] is: literature values, mean where several reported, molar.

Read-outs that look alike come from different tables or passages of the source.

Chain of human serum albumin (HSA) (P02768 25-609): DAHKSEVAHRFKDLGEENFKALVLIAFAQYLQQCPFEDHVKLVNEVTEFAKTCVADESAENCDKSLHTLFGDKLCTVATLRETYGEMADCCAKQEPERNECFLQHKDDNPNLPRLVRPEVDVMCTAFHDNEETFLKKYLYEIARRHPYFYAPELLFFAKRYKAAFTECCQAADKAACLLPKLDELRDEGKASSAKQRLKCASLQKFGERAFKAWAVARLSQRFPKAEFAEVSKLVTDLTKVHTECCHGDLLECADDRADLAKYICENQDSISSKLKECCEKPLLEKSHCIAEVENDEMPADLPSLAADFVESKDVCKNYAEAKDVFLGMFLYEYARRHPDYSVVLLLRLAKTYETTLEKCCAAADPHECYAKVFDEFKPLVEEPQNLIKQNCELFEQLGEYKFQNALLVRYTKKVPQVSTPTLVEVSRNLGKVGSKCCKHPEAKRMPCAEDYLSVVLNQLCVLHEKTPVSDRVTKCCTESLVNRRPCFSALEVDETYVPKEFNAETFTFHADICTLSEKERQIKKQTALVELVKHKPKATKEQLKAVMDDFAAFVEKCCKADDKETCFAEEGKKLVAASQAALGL

`NC(=O)N1c2ccccc2C=Cc2ccccc21` [Carbamazepine]: in [1], the “CHI IAM” value was 23.98. In [1], the “log k IAM” value turned out to be 1.53. In addition, the “log k HSA” value in series [2] turned out to be 0.07; with HSA [5], 0.5. Moreover, in the series with hERG channel (setting [12]), the “hERG pIC50” value is listed as 3.98. For the same compound, in series [3], the Charge result was “Neutral”. The “log k AGP” value in the series with AGP [4] is on record as 0.3; in [7], -0.85. Also, the chromatographic logD in series [6] came out at 1.22. Further, the chromatographic logP in series [6] (reversed-phase HPLC, Gemini NX-C-18 column (50 x 3 mm, 5 µm)) was 1.33. In the series on AGP [8], the “% AGP” value is listed as 65.0%. Further, the “%HSA” value in the series with HSA [9] is given as 75.0%.

`O=C(O)Cc1ccccc1Nc1c(Cl)cccc1Cl` [Diclofenac]: in the series on AGP [4], the “log k AGP” value was determined as 0.2.

With `COc1ccc2c(c1)c(CC(=O)O)c(C)n2C(=O)c1ccc(Cl)cc1` [Indomethacin], in series [1], the “CHI IAM” value stood at 30.11 and the “log k IAM” value came out at 1.81. Further, the “hERG pIC50” value in the series on hERG channel is on record as 3.72. Further, the Charge entry in series [3] is “Acidic”. Further, the “log k AGP” value in the series on AGP [4] worked out at 0.1. Besides, the “log k HSA” value in the series with HSA [5] was found to be 1.8. Further, in series [6], the chromatographic logP was 3.31 and the chromatographic logD was 1.47. In [7], the “log k AGP” value is recorded as 0.18. In the series on AGP [8], the “% AGP” value is 56.0%.

`COC(=O)C1=C(C)NC(C)=C(C(=O)OCCN(C)Cc2ccccc2)C1c1cccc([N+](=O)[O-])c1` (centres unmarked) [Nicardipine]: the “log k AGP” value with AGP [4] stood at 0.8. For the same compound, the “log k HSA” value in the series with HSA [5] turned out to be 1.2. The “% AGP” value with AGP [8] is on record as 87.0%.

As for `CNC(=C[N+](=O)[O-])NCCSCc1csc(CN(C)C)n1` [Nizatidine], in the series on AGP [4], the “log k AGP” value is on record as -0.2. In the series on HSA [5], the “log k HSA” value is listed as -0.6. Also, the “% AGP” value in the series on AGP [8] is listed as 37.1%. Further, the “%HSA” value in the series with HSA [9] is recorded as 20.4%.

Regarding `CC(=O)Nc1ccc(O)cc1` [Paracetamol], the “log k AGP” value in the series on AGP [4] was -1.5. In addition, the “log k HSA” value with HSA [5] is listed as -0.8. The “CHI IAM” value in [10] was 2.9. In the series on AGP [8], the “% AGP” value is reported as 3.2%. Moreover, the “%HSA” value in the series on HSA [9] is 14.0%.

For the compound `CC(C)NCC(O)COc1cccc2ccccc12` (centres unmarked) [Propranolol], in series [1], the “log k IAM” value came out at 2.36. Besides, the Charge result in series [3] is listed as “Basic”. For the same compound, the “log k AGP” value in the series on AGP [4] turned out to be 0.8; in [7], 0.84. Further, in the series on HSA [5], the “log k HSA” value is 0.3. Also, the “% AGP” value in the series with AGP [8] is 86.0%. The “%HSA” value in the series with HSA [9] was 66.6%.

For the compound `COc1cc(Cc2cnc(N)nc2N)cc(OC)c1OC` [Trimethoprim], the “log k IAM” value in series [1] turned out to be 1.01. Further, the “log k HSA” value in series [2] is recorded as -0.05; with HSA [5], -0.2. Moreover, the “hERG pIC50” value in the series with hERG channel (setting [12]) is given as 3.62. In addition, the “log k AGP” value was -0.1 in the series with AGP [4] and -0.07 in [7]. For the same compound, the “% AGP” value in the series with AGP [8] is given as 46.2%. The “%HSA” value in the series on HSA [9] is 37.6%.

As to `CC(=O)CC(c1ccccc1)c1c(O)c2ccccc2oc1=O` (centres unmarked) [Warfarin], in the series with HSA [5], the “log k HSA” value worked out at 1.5. The “log k AGP” value in the series with AGP [11] was 0.7. In addition, the “% AGP” value in the series with AGP [8] is recorded as 83.2%.

What is called chromatographic logD is a lipophilicity value derived from retention on a column. The chromatographic logP is a lipophilicity value derived from retention on a column.

These data come from PMC8920097, “Prediction of hERG inhibition of drug discovery compounds using biomimetic HPLC measurements” (ADMET & DMPK, 2021).
